Several values for one entry are separate records, joined by “and”; a condition that tells them apart may be missing. Identical values can stand only once. Toxic doses and inconclusive results are not listed. Rule for the calls: active = survival T/C of 150% or more; inactive = T/C below 125% in these data.
Test system: BDF1 mice, P388 leukemia ip, median survival T/C
Assay: NCI In Vivo Anticancer Drug Screen. Data for tumor model P388 Leukemia (intraperitoneal) in B6D2F1 (BDF1) mice
Conditions: endpoint: median survival time, higher = longer survival
How it was run: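 Each value expresses how treatment altered survival: treated-mouse outcome over vehicle-mouse outcome, both groups bearing the transplanted tumour.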

[1] = dose: 100.0 mg/kg/injection, schedule: Q01DX009 (ip), vehicle: saline with Tween-80
[2] = dose: 100.0 mg/kg/injection, schedule: Q04DX003 (ip), vehicle: saline with Tween-80
[3] = dose: 200.0 mg/kg/injection, schedule: Q01DX009 (ip), vehicle: saline with Tween-80
[4] = dose: 200.0 mg/kg/injection, schedule: Q04DX003 (ip), vehicle: saline with Tween-80
[5] = dose: 400.0 mg/kg/injection, schedule: Q01DX009 (ip), vehicle: saline with Tween-80
[6] = dose: 400.0 mg/kg/injection, schedule: Q04DX003 (ip), vehicle: saline with Tween-80
[7] = dose: 100.0 mg/kg/injection, schedule: Q04DX003 (ip), vehicle: Klucel (hydroxypropylcellulose) (HPC)
[8] = dose: 400.0 mg/kg/injection, schedule: Q04DX003 (ip), vehicle: Klucel (hydroxypropylcellulose) (HPC)
[9] = dose: 25.0 mg/kg/injection, schedule: Q01DX009 (ip), vehicle: water
[10] = dose: 50.0 mg/kg/injection, schedule: Q01DX009 (ip), vehicle: water
[11] = dose: 100.0 mg/kg/injection, schedule: Q04DX003 (ip), vehicle: water
[12] = dose: 200.0 mg/kg/injection, schedule: Q01DX009 (ip), vehicle: water
[13] = dose: 400.0 mg/kg/injection, schedule: Q01DX009 (ip), vehicle: water
[14] = dose: 100.0 mg/kg/injection, schedule: Q01DX009 (ip), vehicle: Klucel (hydroxypropylcellulose) (HPC)
[15] = dose: 200.0 mg/kg/injection, schedule: Q04DX003 (ip), vehicle: Klucel (hydroxypropylcellulose) (HPC)
[16] = dose: 400.0 mg/kg/injection, schedule: Q01DX009 (ip), vehicle: Klucel (hydroxypropylcellulose) (HPC)
[17] = dose: 200.0 mg/kg/injection, schedule: Q01DX009 (ip), vehicle: Klucel (hydroxypropylcellulose) (HPC)

Measured: T/C

CC(O)(/C=C\c1ccccc1)c1ccccc1 (stereo not given)
inactive: [1] 105 % of control | [2] 95 % of control | [3] 107 % of control | [4] 104 % of control | [5] 105 % of control | [6] 104 % of control

CC(=O)Nc1ccc(/C=C/C(=O)c2ccc(Cl)cc2)cc1
inactive: [1] 100 % of control | [2] 104 % of control | [3] 100 % of control | [4] 100 % of control | [5] 100 % of control | [6] 90 % of control

Ic1ncnc2c1ncn2C1CCCCO1 (stereo not given)
inactive: dose: 100.0 mg/kg/injection, schedule: Q04DX003 (ip), vehicle: saline sonified 91 % of control | dose: 200.0 mg/kg/injection, schedule: Q04DX003 (ip), vehicle: saline sonified 91 % of control | dose: 400.0 mg/kg/injection, schedule: Q04DX003 (ip), vehicle: saline sonified 91 % of control

Cc1cc(OCc2nc(N)nc(N)c2-c2ccc(Cl)c(Cl)c2)ccc1NS(=O)(=O)c1cccc(S(=O)(=O)F)c1
inactive: dose: 45.0 mg/kg/injection, schedule: Q04DX003 (ip), vehicle: Klucel (hydroxypropylcellulose) (HPC) 109 % of control | dose: 65.0 mg/kg/injection, schedule: Q04DX003 (ip), vehicle: Klucel (hydroxypropylcellulose) (HPC) 118 % of control | [7] 122 % of control
active: dose: 264.0 mg/kg/injection, schedule: Q04DX003 (ip), vehicle: Klucel (hydroxypropylcellulose) (HPC) 175 % of control | [8] 170 % of control

CC(C(=O)O)N(CC(=O)O)CC(=O)O.[Co+2].[NH-]CC(=O)O (stereo not given)
inactive: dose: 12.5 mg/kg/injection, schedule: Q01DX009 (ip), vehicle: water 99 % of control | [9] 108 % of control | [10] 105 % of control | dose: 50.0 mg/kg/injection, schedule: Q04DX003 (ip), vehicle: water 103 % of control | [11] 96 % of control

O=C1C(Cl)=C(Cl)C(=O)C(/C=C/N2CCOCC2)=C1Cl
inactive: dose: 6.25 mg/kg/injection, schedule: Q01DX001 (ip), vehicle: saline with Tween-80 109 % of control | dose: 12.5 mg/kg/injection, schedule: Q01DX001 (ip), vehicle: saline with Tween-80 117 % of control | dose: 25.0 mg/kg/injection, schedule: Q01DX001 (ip), vehicle: saline with Tween-80 104 % of control | dose: 50.0 mg/kg/injection, schedule: Q01DX001 (ip), vehicle: saline with Tween-80 113 % of control

CC[C@H]1CN2CCc3cc(OC)c(OC)cc3[C@@H]2C[C@@H]1C[C@@H]1c2cc(OC)c(OC)cc2CCN1CCN(CCCl)CCCl
active: dose: 12.0 mg/kg/injection, schedule: Q04DX003 (ip), vehicle: saline with Tween-80 153 % of control | dose: 20.0 mg/kg/injection, schedule: Q04DX003 (ip), vehicle: saline with Tween-80 157 % of control
inactive: dose: 4.3 mg/kg/injection, schedule: Q04DX003 (ip), vehicle: saline with Tween-80 121 % of control | dose: 6.48 mg/kg/injection, schedule: Q04DX003 (ip), vehicle: saline with Tween-80 108 % of control | dose: 10.8 mg/kg/injection, schedule: Q04DX003 (ip), vehicle: saline with Tween-80 119 % of control

COc1ccc(CN(CCOC(=O)c2ccc(OC)cc2)CCN(CCOC(=O)c2ccc(OC)cc2)Cc2ccc(OC)cc2)cc1
inactive: dose: 25.0 mg/kg/injection, schedule: Q01DX009 (ip), vehicle: other 89 % of control | [9] 93 % of control | dose: 25.0 mg/kg/injection, schedule: Q04DX003 (ip), vehicle: water 95 % of control and 100 % of control | dose: 50.0 mg/kg/injection, schedule: Q01DX009 (ip), vehicle: other 91 % of control | [10] 101 % of control | dose: 100.0 mg/kg/injection, schedule: Q01DX009 (ip), vehicle: other 86 % of control | dose: 200.0 mg/kg/injection, schedule: Q01DX009 (ip), vehicle: other 94 % of control | [12] 110 % of control | dose: 300.0 mg/kg/injection, schedule: Q04DX003 (ip), vehicle: water 107 % of control | [13] 95 % of control

O=C1c2ccccc2C(=O)N1c1ccc(S(=O)(=O)c2ccc(N3C(=O)c4ccccc4C3=O)cc2)cc1
inactive: dose: 87.5 mg/kg/injection, schedule: Q01DX009 (ip), vehicle: saline with Tween-80 104 % of control | dose: 175.0 mg/kg/injection, schedule: Q01DX009 (ip), vehicle: saline with Tween-80 100 % of control | dose: 350.0 mg/kg/injection, schedule: Q01DX009 (ip), vehicle: saline with Tween-80 98 % of control

C(=N\C(/N=C/c1ccccc1)c1ccccc1)/c1ccccc1
inactive: [14] 91 % of control | [7] 100 % of control | [15] 95 % of control | [16] 87 % of control | [8] 100 % of control

C=CCn1c(=O)n(CC=C)c(=O)n(CC=C)c1=O
inactive: dose: 100.0 mg/kg/injection, schedule: Q04DX003 (ip), vehicle: alcohol 100 % of control | dose: 200.0 mg/kg/injection, schedule: Q04DX003 (ip), vehicle: alcohol 104 % of control | dose: 400.0 mg/kg/injection, schedule: Q04DX003 (ip), vehicle: alcohol 109 % of control

N/C(=N\Cl)C(Cl)(Cl)Cl
inactive: dose: 12.5 mg/kg/injection, schedule: Q04DX003 (ip), vehicle: saline 109 % of control | dose: 25.0 mg/kg/injection, schedule: Q04DX003 (ip), vehicle: saline 118 % of control | dose: 33.0 mg/kg/injection, schedule: Q04DX003 (ip), vehicle: saline 118 % of control | dose: 37.5 mg/kg/injection, schedule: Q01DX009 (ip), vehicle: saline 118 % of control | dose: 50.0 mg/kg/injection, schedule: Q04DX003 (ip), vehicle: saline 118 % of control | dose: 75.0 mg/kg/injection, schedule: Q04DX003 (ip), vehicle: saline 118 % of control
active: dose: 25.0 mg/kg/injection, schedule: Q01DX009 (ip), vehicle: saline 150 % of control

CCSc1ncc(C)c(Cl)n1
inactive: dose: 100.0 mg/kg/injection, schedule: Q01DX009 (ip), vehicle: water 107 % of control | [11] 105 % of control | [12] 99 % of control | dose: 200.0 mg/kg/injection, schedule: Q04DX003 (ip), vehicle: water 107 % of control | [13] 108 % of control | dose: 400.0 mg/kg/injection, schedule: Q04DX003 (ip), vehicle: water 103 % of control

Cc1ccc(-n2c(=S)[nH]c3ccccc3c2=O)cc1C
inactive: [14] 100 % of control | [7] 105 % of control | [17] 86 % of control | [15] 100 % of control | [16] 91 % of control | [8] 100 % of control

O=C(OCCC(OC(=O)c1ccccc1)C(COC(=O)c1ccccc1)OC(=O)c1ccccc1)c1ccccc1 (stereo not given)
inactive: [14] 87 % of control | [17] 95 % of control

COC(=O)CCCCCC(O)C1CCC2OC(=O)CC21C (stereo not given)
inactive: [2] 100 % of control | [4] 100 % of control | [6] 100 % of control

C=C(C)C12OC3(c4ccccc4)OC1C1C4OC4(CO)C(O)C4(O)C(=O)C(C)=CC4C1(O3)C(C)C2OC(=O)/C=C/C=C/C=C/CCC (stereo not given)
inactive: dose: 6.3 micrograms/kg/injection, schedule: Q## X009 (ip), vehicle: saline with Tween-80 109 % of control | dose: 12.5 micrograms/kg/injection, schedule: Q## X009 (ip), vehicle: saline with Tween-80 106 % of control | dose: 25.0 micrograms/kg/injection, schedule: Q## X009 (ip), vehicle: saline with Tween-80 109 % of control | dose: 50.0 micrograms/kg/injection, schedule: Q## X009 (ip), vehicle: saline with Tween-80 106 % of control
active: dose: 100.0 micrograms/kg/injection, schedule: Q## X009 (ip), vehicle: saline with Tween-80 168 % of control

N#CCNC(=O)c1ccccc1
inactive: dose: 6.0 mg/kg/injection, schedule: Q01DX009 (ip), vehicle: Klucel (hydroxypropylcellulose) (HPC) 88 % of control | dose: 12.0 mg/kg/injection, schedule: Q01DX009 (ip), vehicle: Klucel (hydroxypropylcellulose) (HPC) 88 % of control | dose: 25.0 mg/kg/injection, schedule: Q01DX009 (ip), vehicle: Klucel (hydroxypropylcellulose) (HPC) 91 % of control | dose: 25.0 mg/kg/injection, schedule: Q04DX003 (ip), vehicle: Klucel (hydroxypropylcellulose) (HPC) 110 % of control | dose: 50.0 mg/kg/injection, schedule: Q04DX003 (ip), vehicle: Klucel (hydroxypropylcellulose) (HPC) 110 % of control | [7] 90 % of control
